Test: bioequivalence with a commercial form for oral administration
Assay type: in vivo
Conditions: mixture of diastereoisomers, diastereoisomeric ratio (B/A+B) of 0.5 to 0.6

COCC1=C(C(=O)OC(C)OC(=O)OC(C)C)N2C(=O)[C@@H](NC(=O)/C(=N\OC)c3csc(N)n3)C2SC1 (mixture of isomers) [cefpodoxim proxetil, 7-[2-(2-aminothiazol-4-yl)-2-(Z)-(methoxyimino)acetamido]-3-methoxymethyl-3-cephem-4-carboxylic acid-1-(isopropoxycarbonyloxy)ethyl ester]
bioequivalence with a commercial form: bioequivalent

Reference: patent US6489470B1, “Process for the preparation of cefpodoxime proxetil diastereoisomers” (Biochemie Gesellschaft m.b.H., priority 1998, dated 2002)
